Source: US9738655B2, “Tetrahydroisoquinolines containing substituted azoles as factor XIa inhibitors” (BRISTOL-MYERS SQUIBB COMPANY, priority 2013, dated 2017)
Counter-ions that a name gives are not always drawn. Like-named read-outs stand apart in the source and are kept apart here.

Columns and labels:
[1] = molecular target: purified human plasma kallikrein (Homo sapiens (Human), UniProt P03952); assay: Plasma kallikrein enzyme inhibition assay (chromogenic substrate S-2302); assay type: biochemical
purified human plasma kallikrein, sequence (P03952 391-638): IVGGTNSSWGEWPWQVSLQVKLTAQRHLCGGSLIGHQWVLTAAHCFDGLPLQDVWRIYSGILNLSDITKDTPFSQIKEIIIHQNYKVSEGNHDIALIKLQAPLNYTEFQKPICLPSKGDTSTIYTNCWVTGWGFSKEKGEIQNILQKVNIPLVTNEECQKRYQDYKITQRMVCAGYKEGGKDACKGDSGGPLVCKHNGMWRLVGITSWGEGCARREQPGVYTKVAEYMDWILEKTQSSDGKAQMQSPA
purified human plasma kallikrein, sequence (P03952 20-390 partner): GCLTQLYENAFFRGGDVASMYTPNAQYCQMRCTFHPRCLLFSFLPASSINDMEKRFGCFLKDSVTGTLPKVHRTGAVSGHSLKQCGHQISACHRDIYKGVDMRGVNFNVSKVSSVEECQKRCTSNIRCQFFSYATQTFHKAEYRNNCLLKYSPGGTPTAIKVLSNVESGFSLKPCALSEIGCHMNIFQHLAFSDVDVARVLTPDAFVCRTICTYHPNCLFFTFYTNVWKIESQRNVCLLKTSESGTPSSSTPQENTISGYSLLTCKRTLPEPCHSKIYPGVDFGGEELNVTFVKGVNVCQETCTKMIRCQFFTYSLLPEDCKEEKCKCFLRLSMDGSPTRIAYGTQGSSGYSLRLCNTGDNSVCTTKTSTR

[2] = molecular target: purified human Factor XIa (Homo sapiens (Human), UniProt P03951); assay: Factor XIa enzyme inhibition assay (chromogenic substrate S-2366)
purified human Factor XIa, sequence (P03951 388-625): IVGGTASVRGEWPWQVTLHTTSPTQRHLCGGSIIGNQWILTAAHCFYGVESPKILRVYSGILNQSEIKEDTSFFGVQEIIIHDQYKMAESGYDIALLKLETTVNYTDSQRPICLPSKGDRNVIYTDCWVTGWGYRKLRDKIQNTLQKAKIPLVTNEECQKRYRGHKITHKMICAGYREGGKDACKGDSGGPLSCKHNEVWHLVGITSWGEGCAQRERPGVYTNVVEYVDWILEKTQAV
purified human Factor XIa, sequence (P03951 19-387 partner): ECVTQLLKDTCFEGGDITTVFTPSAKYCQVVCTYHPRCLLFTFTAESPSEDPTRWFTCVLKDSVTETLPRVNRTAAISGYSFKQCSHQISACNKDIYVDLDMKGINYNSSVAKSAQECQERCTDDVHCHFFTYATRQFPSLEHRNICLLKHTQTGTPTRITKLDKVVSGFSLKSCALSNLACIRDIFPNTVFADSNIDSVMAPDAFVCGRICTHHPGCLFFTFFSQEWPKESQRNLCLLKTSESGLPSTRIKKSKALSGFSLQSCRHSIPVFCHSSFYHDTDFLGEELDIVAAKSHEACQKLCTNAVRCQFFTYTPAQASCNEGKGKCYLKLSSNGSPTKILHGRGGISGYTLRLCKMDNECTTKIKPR

[3] = measured at 25° C. (no asterisk)
[4] = read-out: Factor XIa Ki, measured at 25° C.

| SMILES | Ki [1, 3] [nM] | Ki [2, 4] [nM] | Ki ([1]; measured at 37° C. (*)) [nM] | Ki [2] [nM] |
| --- | --- | --- | --- | --- |
| COC1CCN(c2cccc3c2CCN(C(=O)c2cc(-c4cccc(Cl)c4F)ccn2)C3C(=O)Nc2ccc(C(=O)O)cc2)CC1 (centres unmarked) [Example 322, 4-(2-(4-(3-Chloro-2-fluorophenyl)picolinoyl)-5-(4-methoxypiperidin-1-yl)-1,2,3,4-tetrahydroisoquinoline-1-carboxamido)benzoic acid, 2 TFA salt] | 138 | 8.21 |  |  |
| COC1CCN(c2cccc3c2CCN(C(=O)c2cncc(-c4cccc(Cl)c4F)c2)C3C(=O)Nc2ccc(C(=O)O)cc2)CC1 (centres unmarked) [Example 323, 4-(2-(5-(3-Chloro-2-fluorophenyl)nicotinoyl)-5-(4-methoxypiperidin-1-yl)-1,2,3,4-tetrahydroisoquinoline-1-carboxamido)benzoic acid, 2 TFA salt] | 99.2 | 5.28 |  |  |
| COC1CCN(c2cccc3c2CCN(C(=O)c2ccnc(-c4cccc(Cl)c4F)c2)C3C(=O)Nc2ccc(C(=O)O)cc2)CC1 (centres unmarked) [Example 324, 4-(2-(2-(3-Chloro-2-fluorophenyl)isonicotinoyl)-5-(4-methoxypiperidin-1-yl)-1,2,3,4-tetrahydroisoquinoline-1-carboxamido)benzoic acid, 2 TFA salt] | 958 | 37.1 |  |  |
| COC1CCN(c2cccc3c2CCN(C(=O)c2cccc(-c4cccc(Cl)c4F)n2)C3C(=O)Nc2ccc(C(=O)O)cc2)CC1 (centres unmarked) [Example 325, 4-(2-(6-(3-Chloro-2-fluorophenyl)picolinoyl)-5-(4-methoxypiperidin-1-yl)-1,2,3,4-tetrahydroisoquinoline-1-carboxamido)benzoic acid, 2 TFA salt] |  | 2400 | > 6000 |  |
| COC1CCN(c2cccc3c2CCN(C(=O)N2CCCC(c4cccc(Cl)c4F)C2)C3C(=O)Nc2ccc(C(=O)O)cc2)CC1 (centres unmarked) [Example 326, 4-(2-(3-(3-Chloro-2-fluorophenyl)piperidine-1-carbonyl)-5-(4-methoxypiperidin-1-yl)-1,2,3,4-tetrahydroisoquinoline-1-carboxamido)benzoic acid, TFA salt] |  |  | > 2000 | 330 |
| COC1CCN(c2cccc3c2CCN(C(=O)c2cnn(-c4ccnc(C)c4)c2)C3C(=O)Nc2ccc(C(=O)O)cc2)CC1 (centres unmarked) [Example 327, 4-(5-(4-Methoxypiperidin-1-yl)-2-(1-(2-methylpyridin-4-yl)-1H-pyrazole-4-carbonyl)-1,2,3,4-tetrahydroisoquinoline-1-carboxamido)benzoic acid, TFA salt] |  | 816 | > 6000 |  |

Continued, values first:

| Ki [1, 3] [nM] | Ki [2, 4] [nM] | Ki ([1]; measured at 37° C. (*)) [nM] | Ki [2] [nM] | SMILES |
| --- | --- | --- | --- | --- |
| 229 | 26.6 |  |  | COC1CCN(c2cccc3c2CCN(C(=O)c2cnn(-c4cccc(Cl)c4)c2)C3C(=O)Nc2ccc(C(=O)O)cc2)CC1 (centres unmarked) [Example 329, 4-(2-(1-(3-chlorophenyl)-1H-pyrazole-4-carbonyl)-5-(4-methoxypiperidin-1-yl)-1,2,3,4-tetrahydroisoquinoline-1-carboxamido)benzoic acid, TFA salt] |
|  | 3510 | > 6000 |  | COC1CCN(c2cccc3c2CCN(C(=O)c2cnn(-c4cccnc4)c2)C3C(=O)Nc2ccc(C(=O)O)cc2)CC1 (centres unmarked) [Example 330, 4-(5-(4-methoxypiperidin-1-yl)-2-(1-(pyridin-3-yl)-1H-pyrazolc-4-carbonyl)-1,2,3,4-tetrahydroisoquinoline-1-carboxamido)benzoic acid, 2 TFA salt] |
|  | 7050 | > 6000 |  | COC1CCN(c2cccc3c2CCN(C(=O)c2cnn(-c4ccc5nonc5c4)c2)C3C(=O)Nc2ccc(C(=O)O)cc2)CC1 (centres unmarked) [Example 331, 4-(2-(1-(benzo[c][1,2,5]oxadiazol-5-yl)-1H-pyrazole-4-carbonyl)-5-(4-methoxypiperidin-1-yl)-1,2,3,4-tetrahydroisoquinoline-1-carboxamido)benzoic acid] |
| 61.3 | 18.2 |  |  | C=C(C)c1cccc2c1CCN(C(=O)c1cn(-c3cccc(Cl)c3F)nn1)C2C(=O)Nc1ccc(C(=O)O)cc1 (centres unmarked) [Example 333, 4-(2-(1-(3-Chloro-2-fluorophenyl)-1H-1,2,3-triazole-4-carbonyl)-5-(prop-1-en-2-yl)-1,2,3,4-tetrahydroisoquinoline-1-carboxamido)benzoic acid] |
